Measured values as given in ChEMBL document CHEMBL3301361, “Experimental in vitro DMPK and physicochemical data on a set of publicly disclosed compounds”.
In brackets after ≈: the same amount, converted by molar mass.

Experiments:
physchem [1] = conditions: octan-1-ol/water, pH 7.4, LogD7.4
physchem [2] = conditions: pH 7.4 buffer

Structure (SMILES) | logD (physchem [1]) | solubility thermodynamic (physchem [2])
Cn1cnc(-c2ccccc2)c1-c1nc2c(N)ncnc2s1 | 2.69 | 162 µM (≈ 50 µg/mL)
CS(=O)(=O)c1cccc(Nc2nccc(Nc3cccc4[nH]ncc34)n2)c1 | 2.91 | 6.8 µM (≈ 2.59 µg/mL)
Clc1n[nH]c2cccc(Nc3ccnc(Nc4cc(N5CCOCC5)cc(N5CCOCC5)c4)n3)c12 | 2.78 | 5.1 µM (≈ 2.59 µg/mL)
CS(=O)(=O)c1cccc(Nc2nccc(Nc3cccc4c3OCO4)n2)c1 | 2.83 | 5.9 µM (≈ 2.27 µg/mL)
Cc1cc2c(C)cc(=O)oc2c2c1NCCC2 | 2.9 | 30.9 µM (≈ 7.08 µg/mL)
Cc1sc2ncnc(SCC(=O)N3CCCC3)c2c1C | 2.89 | 100 µM (≈ 30.7 µg/mL)
O=C(CCN1CCCCC1)Nc1ccc(-c2cccn3c(=O)cc(N4CCOCC4)nc23)c2sc3ccccc3c12 | 2.9 | 16.6 µM (≈ 9.42 µg/mL)
O=C(NC1CCCCC1)C1CCCN(S(=O)(=O)c2cccs2)C1 (stereo unspecified) | 2.93 | 4.2 µM (≈ 1.5 µg/mL)
COCCN(c1ccnc(Nc2cc(N3CCOCC3)cc(N3CCOCC3)c2)n1)c1cc(CO)ccc1C | 2.8 | 302 µM (≈ 161 µg/mL)
O=c1cc(N2CCOCC2)nc2c3ccccc3ccn12 | 2.78 | 44.7 µM (≈ 12.6 µg/mL)
COc1cc(N2CCN(C(C)=O)CC2)ccc1Nc1ncc(C#N)c(-c2cnc3ccccn23)n1 | 2.8 | 0.9 µM (≈ 0.422 µg/mL)
CC(=O)N1CCN(c2ccc(Nc3nccc(-c4cnc5ccccn45)n3)cc2)CC1 | 2.82 | 8.5 µM (≈ 3.51 µg/mL)
COc1cc(N2CCN(C(C)=O)CC2)ccc1Nc1ncc(C)c(-c2cnc3ccccn23)n1 | 2.9 | 5 µM (≈ 2.29 µg/mL)
CN(C(=O)c1ccncc1)C1CCN(CCC(c2ccccc2)c2ccccc2)CC1 | 2.8 | 537 µM (≈ 222 µg/mL)
Cc1nc(S(C)(=O)=O)ccc1Nc1ncnc(OC2CCN(C(=O)OC(C)C)CC2)c1C | 2.8 | 12.3 µM (≈ 5.7 µg/mL)
CCN1C(=O)N(C)c2cnc(Nc3ccc(C(=O)NC4CCN(C)CC4)cc3OC)nc2N1C1CCCC1 | 2.75 | 603 µM (≈ 315 µg/mL)
COc1cc2c(Nc3ncc(CC(=O)Nc4cccc(F)c4)s3)ncnc2cc1OCCCN1CCC(CO)CC1 | 2.89 | 26.9 µM (≈ 15.6 µg/mL)
CCc1[nH]nc(NC(=O)Cc2ncc(Oc3ccnc4cc(OC)c(OC)cc34)cc2OC)c1C | 2.79 | 37.2 µM (≈ 17.8 µg/mL)

Structure (SMILES) | logD (physchem [1]) | solubility thermodynamic (physchem [2])
O=C(Nc1ccc(N2CCOCC2)nc1)c1nnc(Nc2ccccc2)o1 | 2.9 | 1.9 µM (≈ 0.696 µg/mL)
COc1cccc(Nc2nnc(C(=O)Nc3ccc(N4CCOCC4)nc3)o2)c1 | 2.8 | 4.6 µM (≈ 1.82 µg/mL)
CC(C)N1CCO[C@@H](CN2CCN(C(=O)Nc3ccc(Cl)c(Cl)c3)CC2)C1 | 2.77 | 1120 µM (≈ 466 µg/mL)
CCCSc1nc2ccc(NC(=O)CCNC(N)=O)cc2s1 | 2.9 | 93.3 µM (≈ 31.6 µg/mL)
CC(C)Cn1c(=O)n(C)c(=O)c2c(C(=O)N3CC[C@@H](O)C3)c(Cc3ccccc3C(F)(F)F)sc21 | 2.74 | 550 µM (≈ 280 µg/mL)
C[C@@H]1CN(C(=O)OC(C)(C)C)CCN1c1ncc(OCc2ccc(C#N)cc2)cn1 | 2.89 | 3.4 µM (≈ 1.39 µg/mL)
Cc1cc(Nc2nc(NCc3cc(C)no3)ncc2Br)[nH]n1 | 2.92 | 61.7 µM (≈ 22.5 µg/mL)
CCCOc1nc(N2CCC[C@@H](CC(=O)O)C2)ccc1C(=O)NC1CCCCC1 | 2.81 | 550 µM (≈ 222 µg/mL)
COc1cc2c(NC(=O)Nc3c(Cl)cccc3Cl)ncnc2cc1OCC1CCN(C)CC1 | 2.7 | 10 µM (≈ 4.9 µg/mL)
CS(=O)(=O)Cc1cc(N2CCOCC2)nc(-c2cccc3cc[nH]c23)n1 | 2.8 | 1.1 µM (≈ 0.41 µg/mL)
C[C@@H](Oc1cccc2ncnc(Nc3ccc4c(cnn4Cc4ccccn4)c3)c12)C(=O)N1CCOCC1 | 2.82 | 95.5 µM (≈ 48.7 µg/mL)
COc1cc2c(Nc3cnc(NC(=O)c4ccccc4)nc3)ncnc2cc1OCCCN1CCOCC1 | 2.7 | 3.6 µM (≈ 1.86 µg/mL)
C[C@@H](Oc1cccc2ncnc(Nc3ccc4c(cnn4Cc4ccccn4)c3)c12)C(=O)N(C)C | 2.89 | 295 µM (≈ 138 µg/mL)
Clc1cc(Nc2ncnc3[nH]nc(OCCN4CCCC4)c23)ccc1OCc1ccccn1 | 2.87 | 12 µM (≈ 5.59 µg/mL)
C[C@@H](Oc1cccc2ncnc(Nc3ccc4c(cnn4Cc4cscn4)c3)c12)C(=O)N1CCOCC1 | 2.81 | 151 µM (≈ 78.1 µg/mL)
COc1cc2ncc(C(N)=O)c(Nc3ccccc3F)c2cc1OC | 2.81 | 21.9 µM (≈ 7.48 µg/mL)
COc1cc(Nc2cc(Oc3cccnc3)ccn2)cc(OC)c1OC | 2.66 | 93.3 µM (≈ 33 µg/mL)
Cn1c(C#N)ccc1-c1ccc2c(c1)C(C)(C)OC(=O)N2 | 2.85 | 13.2 µM (≈ 3.71 µg/mL)

Continued, values first:

logD (physchem [1]) | solubility thermodynamic (physchem [2]) | Structure (SMILES)
2.92 | 21.4 µM (≈ 7.31 µg/mL) | COc1ccc(C(=O)N2CCC(C(=O)c3ccc(F)cc3)CC2)cc1
2.9 | 30.9 µM (≈ 10.2 µg/mL) | O=C(c1ccc(F)cc1)C1CCN(C(=O)c2ccc(F)cc2)CC1
2.7 | 26.9 µM (≈ 6.38 µg/mL) | Nc1ccc2cccc(Nc3ncccn3)c2n1
2.88 | 52.5 µM (≈ 15.7 µg/mL) | Clc1ccc(-c2nnc3cccc(Cl)n23)c(Cl)c1
3 | 81.3 µM (≈ 23.5 µg/mL) | Cc1cccc(NS(=O)(=O)c2cccc3nonc23)c1
2.7 | 1.6 µM (≈ 0.522 µg/mL) | CCn1c(=O)ccc2cnc(Nc3ccc(OC)c(OC)c3)nc21
2.92 | 204 µM (≈ 69.7 µg/mL) | COc1ccc(C(=O)C2CCN(C(=O)c3ccc(F)cc3)CC2)cc1
2.69 | 759 µM (≈ 214 µg/mL) | NCC(O)(c1ccc(Cl)cc1)c1ccc(Cl)cc1
2.98 | 229 µM (≈ 84.9 µg/mL) | OCCNCc1cc(Br)ccc1OCc1ccc(Cl)cc1
2.78 | 324 µM (≈ 71.3 µg/mL) | c1ccc(Nc2ccnc3ccccc23)cc1
2.75 | 955 µM (≈ 182 µg/mL) | Cc1sc(N)nc1-c1ccccc1
2.72 | 190 µM (≈ 55.6 µg/mL) | O=C(c1ccc(Cl)cc1)C1CCN(C(=O)C2CC2)CC1
2.93 | 13.2 µM (≈ 5.97 µg/mL) | CC(=O)Nc1cc(CN2C(=O)N(c3ccc(SC(F)(F)F)cc3)C(=O)C2(C)C)ccn1
2.67 | 372 µM (≈ 183 µg/mL) | Cc1c(-c2ccc3c(c2)OCO3)c(=O)n(C[C@H](N)c2ccccc2)c(=O)n1Cc1c(F)cccc1F
2.67 | 4.5 µM (≈ 1.19 µg/mL) | Nc1nc(N)c(C(=O)Nc2ccccn2)nc1Cl
2.68 | 468 µM (≈ 173 µg/mL) | CCOC(=O)c1ccc(COCC2CCN(c3ccc(C)nn3)CC2)cc1

logD (physchem [1]) | solubility thermodynamic (physchem [2]) | Structure (SMILES)
2.7 | 15.8 µM (≈ 5.87 µg/mL) | CCOC(=O)c1ccc(OCCC2CN(c3ccc(C)nn3)CCO2)cc1 (stereo unspecified)
2.74 | 118 µM (≈ 39.3 µg/mL) | Clc1ccc(CN(Cc2ccc(Cl)cc2)c2nnn[nH]2)cc1
3 | 2.6 µM (≈ 0.999 µg/mL) | O=C(Nc1ccc(N2CCOCC2)nc1)c1nnc(Nc2ccc(F)cc2)o1
2.96 | 200 µM (≈ 93.8 µg/mL) | CC(C)(C(=O)Nc1nnc(C(=O)Nc2ccc(N3CCOCC3)cc2)o1)c1ccc(Cl)cc1
2.87 | 170 µM (≈ 36 µg/mL) | O=C(COc1ccccc1)c1ccccc1
2.72 | 339 µM (≈ 116 µg/mL) | NC1(Cc2ccc(Cl)cc2)CCN(c2ncnc3[nH]ccc23)CC1
2.96 | 2.5 µM (≈ 0.909 µg/mL) | O=c1[nH]c2cc(Cl)ccc2c(O)c1-c1cccc(Oc2ccccc2)c1
2.76 | 407 µM (≈ 190 µg/mL) | Cc1c(-c2ccccc2F)c(=O)n(C[C@H](N)c2ccccc2)c(=O)n1Cc1c(F)cccc1F
2.96 | 132 µM (≈ 56.5 µg/mL) | O=C(O)c1c(Sc2ccccc2)c2cc(Cl)ccc2n1Cc1ccc(Cl)cc1
2.71 | 1.1 µM (≈ 0.303 µg/mL) | CNC(=O)Nc1cc(-c2ccccc2)sc1C(N)=O
2.9 | 17 µM (≈ 3.95 µg/mL) | Cc1cnc(NC(=O)Cc2ccccc2)s1
2.94 | 17 µM (≈ 4.68 µg/mL) | Cn1cnc(-c2ccccc2)c1C#Cc1ccnc(N)n1
2.98 | 24 µM (≈ 5.24 µg/mL) | CSc1nc(N)nc(-c2ccccc2)n1
2.84 | 339 µM (≈ 101 µg/mL) | O=C1NC(=O)C(Cc2cccc(Oc3ccccc3)c2)S1 (stereo unspecified)
2.8 | 24.5 µM (≈ 5.79 µg/mL) | O=c1[nH]nc(Cc2ccccc2)c2ccccc12
2.85 | 417 µM (≈ 98.1 µg/mL) | Cc1ccccc1Nc1ncnc2ccccc12
